± gives the expanded uncertainty stated by the source.
Assays:
[1] = 101.33 kPa, Liquid; for speed of sound: Sing-around technique in a fixed-path interferometer
[2] = mn = molality of the nth substance listed, in mol/kg; settings: 101 kPa, Liquid; for speed of sound: Sing-around technique in a fixed-path interferometer

CC(C)O [propan-2-ol]
[1], 298.15 K
Settings | mass density [kg/m3] | speed of sound [m/s]
– | 780.804 ± 0.31 | 1139.1 ± 1.2

CC#N [acetonitrile]
[1], 298.15 K
Settings | mass density [kg/m3] | speed of sound [m/s]
– | 776.6 ± 0.31 | 1279.2 ± 1.3

CCO [ethanol]
[1], 298.15 K
Settings | mass density [kg/m3] | speed of sound [m/s]
– | 785.125 ± 0.31 | 1143.4 ± 1.2

[Br-].[Li+] [lithium bromide] + CCO
[2], 298.15 K
Settings | mass density [kg/m3] | speed of sound [m/s]
m1 = 0.0789 | 790.432 ± 0.3 | 1147 ± 1.2
m1 = 0.0913 | 791.251 ± 0.3 | 1147.4 ± 1.2
m1 = 0.0985 | 791.782 ± 0.3 | 1147.8 ± 1.2
m1 = 0.1384 | 794.334 ± 0.3 | 1149.2 ± 1.2
m1 = 0.1556 | 795.465 ± 0.3 | 1150.1 ± 1.2
m1 = 0.2019 | 798.467 ± 0.29 | 1151.6 ± 1.2
m1 = 0.2348 | 800.584 ± 0.29 | 1152.6 ± 1.2
m1 = 0.2495 | 801.494 ± 0.29 | 1153.2 ± 1.2
m1 = 0.301 | 804.725 ± 0.29 | 1154.7 ± 1.2
m1 = 0.4002 | 810.966 ± 0.28 | 1157.8 ± 1.2
m1 = 0.4903 | 816.539 ± 0.28 | 1160.5 ± 1.2
m1 = 0.6076 | 823.796 ± 0.27 | 1163.8 ± 1.2
m1 = 0.7038 | 829.747 ± 0.27 | 1166.5 ± 1.2
m1 = 0.8013 | 835.512 ± 0.26 | 1168.9 ± 1.2
m1 = 0.8975 | 841.268 ± 0.25 | 1171.5 ± 1.2
m1 = 1.013 | 848.08 ± 0.25 | 1174.4 ± 1.2
m1 = 1.093 | 852.846 ± 0.24 | 1176.6 ± 1.2
m1 = 1.215 | 860.012 ± 0.23 | 1179.5 ± 1.2

CC(C)=O [acetone]
[1], 298.15 K
Settings | mass density [kg/m3] | speed of sound [m/s]
– | 784.233 ± 0.31 | 1161.7 ± 1.3

[Br-].[Li+] [lithium bromide] + CC#N
[2], 298.15 K
Settings | mass density [kg/m3] | speed of sound [m/s]
m1 = 0.0209 | 778.135 ± 0.32 | 1279.8 ± 1.3
m1 = 0.0302 | 778.802 ± 0.32 | 1280.1 ± 1.3
m1 = 0.0403 | 779.512 ± 0.32 | 1280.4 ± 1.3
m1 = 0.0478 | 780.04 ± 0.31 | 1280.6 ± 1.3
m1 = 0.07 | 781.58 ± 0.31 | 1281.3 ± 1.3
m1 = 0.0799 | 782.247 ± 0.31 | 1281.6 ± 1.3
m1 = 0.0904 | 782.95 ± 0.31 | 1281.9 ± 1.3
m1 = 0.0986 | 783.518 ± 0.31 | 1282.1 ± 1.3
m1 = 0.1212 | 784.97 ± 0.31 | 1282.8 ± 1.3
m1 = 0.1506 | 786.812 ± 0.31 | 1283.7 ± 1.3
m1 = 0.1985 | 789.96 ± 0.3 | 1285 ± 1.3
m1 = 0.2498 | 793.354 ± 0.3 | 1286.4 ± 1.3
m1 = 0.2981 | 796.544 ± 0.3 | 1287.7 ± 1.3
m1 = 0.3974 | 803.094 ± 0.29 | 1290.4 ± 1.3
m1 = 0.5004 | 809.733 ± 0.28 | 1293.1 ± 1.3
m1 = 0.596 | 815.99 ± 0.28 | 1295.6 ± 1.3
m1 = 0.6972 | 822.595 ± 0.27 | 1298.2 ± 1.3

[Br-].[Li+] [lithium bromide] + CC(C)O
[2], 298.15 K
Settings | mass density [kg/m3] | speed of sound [m/s]
m1 = 0.0787 | 786.228 ± 0.31 | 1142.6 ± 1.2
m1 = 0.0957 | 787.379 ± 0.31 | 1143.1 ± 1.2
m1 = 0.1024 | 787.748 ± 0.3 | 1143.3 ± 1.2
m1 = 0.1387 | 790.137 ± 0.3 | 1144.5 ± 1.2
m1 = 0.1915 | 793.601 ± 0.3 | 1146.2 ± 1.2
m1 = 0.2503 | 797.348 ± 0.3 | 1148.1 ± 1.2
m1 = 0.3451 | 803.296 ± 0.29 | 1150.9 ± 1.2
m1 = 0.3951 | 806.427 ± 0.29 | 1152.3 ± 1.2
m1 = 0.4768 | 811.456 ± 0.28 | 1154.5 ± 1.3
m1 = 0.594 | 818.719 ± 0.28 | 1157.7 ± 1.2
m1 = 0.697 | 824.988 ± 0.27 | 1160.3 ± 1.2
m1 = 0.7757 | 829.74 ± 0.26 | 1162.3 ± 1.2
m1 = 0.9066 | 837.46 ± 0.26 | 1165.4 ± 1.2
m1 = 1.003 | 843.093 ± 0.25 | 1167.7 ± 1.2
m1 = 1.158 | 851.831 ± 0.24 | 1170.5 ± 1.2
m1 = 1.272 | 858.084 ± 0.24 | 1173.5 ± 1.2

[Br-].[Li+] [lithium bromide] + CC(C)=O
[2], 298.15 K
Settings | mass density [kg/m3] | speed of sound [m/s]
m1 = 0.0301 | 784.377 ± 0.38 | 1141.5 ± 1.3
m1 = 0.0367 | 785.81 ± 0.32 | 1142.3 ± 1.3
m1 = 0.0486 | 786.228 ± 0.31 | 1142.6 ± 1.3
m1 = 0.0679 | 787.379 ± 0.31 | 1143.1 ± 1.3
m1 = 0.0776 | 787.748 ± 0.34 | 1143.3 ± 1.3
m1 = 0.0873 | 790.137 ± 0.41 | 1144.5 ± 1.3
m1 = 0.099 | 793.601 ± 0.38 | 1146.2 ± 1.3
m1 = 0.1177 | 797.348 ± 0.37 | 1148.1 ± 1.3
m1 = 0.1424 | 803.296 ± 0.38 | 1150.9 ± 1.3
m1 = 0.3719 | 806.427 ± 0.29 | 1152.3 ± 1.3
m1 = 0.4973 | 811.456 ± 0.28 | 1154.5 ± 1.3
m1 = 0.5928 | 818.719 ± 0.28 | 1157.7 ± 1.3
m1 = 0.7044 | 824.988 ± 0.27 | 1160.3 ± 1.3
m1 = 0.8 | 829.74 ± 0.27 | 1162.3 ± 1.3

CO [methanol]
[1], 298.15 K
Settings | mass density [kg/m3] | speed of sound [m/s]
– | 786.71 ± 0.3 | 1108.5 ± 1.2

[Br-].[Li+] [lithium bromide] + CO
[2], 298.15 K
Settings | mass density [kg/m3] | speed of sound [m/s]
m1 = 0.0425 | 789.48 ± 0.3 | 1110.7 ± 1.2
m1 = 0.0588 | 790.553 ± 0.3 | 1111.3 ± 1.2
m1 = 0.0714 | 791.384 ± 0.3 | 1112 ± 1.2
m1 = 0.0903 | 792.602 ± 0.3 | 1112.8 ± 1.2
m1 = 0.1168 | 794.333 ± 0.3 | 1113.9 ± 1.2
m1 = 0.1473 | 796.328 ± 0.3 | 1115.1 ± 1.2
m1 = 0.2089 | 800.289 ± 0.29 | 1117.7 ± 1.2
m1 = 0.2993 | 806.041 ± 0.29 | 1121.1 ± 1.2
m1 = 0.5035 | 818.761 ± 0.28 | 1128.8 ± 1.2
m1 = 0.7097 | 831.385 ± 0.26 | 1136.2 ± 1.2
m1 = 0.9875 | 848.253 ± 0.25 | 1146.1 ± 1.2
m1 = 1.163 | 858.424 ± 0.24 | 1152 ± 1.2
m1 = 1.464 | 876.582 ± 0.22 | 1162.5 ± 1.2
m1 = 1.97 | 905.481 ± 0.19 | 1179.6 ± 1.2
m1 = 2.45 | 933.222 ± 0.17 | 1195.9 ± 1.3
m1 = 3.489 | 989.847 ± 0.12 | 1231.2 ± 1.3

[Br-].[Li+] [lithium bromide] + CC(=O)N(C)C
[2], 323.15 K
Settings | mass density [kg/m3] | speed of sound [m/s]
m1 = 0.0322 | 915.827 ± 0.19 | 1360.8 ± 1.3
m1 = 0.0511 | 917.401 ± 0.19 | 1362.5 ± 1.3
m1 = 0.0638 | 918.452 ± 0.19 | 1363.6 ± 1.3
m1 = 0.0978 | 921.232 ± 0.19 | 1366.4 ± 1.3
m1 = 0.1188 | 922.89 ± 0.19 | 1368.1 ± 1.3
m1 = 0.1475 | 925.178 ± 0.18 | 1370.3 ± 1.3
m1 = 0.2003 | 929.349 ± 0.18 | 1374.4 ± 1.3
m1 = 0.2472 | 933.065 ± 0.18 | 1378.2 ± 1.3
m1 = 0.3042 | 937.515 ± 0.17 | 1382.1 ± 1.3
m1 = 0.3988 | 944.893 ± 0.17 | 1389.2 ± 1.3
m1 = 0.4886 | 951.867 ± 0.16 | 1395.9 ± 1.3
m1 = 0.601 | 960.362 ± 0.15 | 1403.8 ± 1.3
m1 = 0.7053 | 968.26 ± 0.15 | 1411.4 ± 1.3
m1 = 0.9019 | 982.963 ± 0.14 | 1425.5 ± 1.3
m1 = 1 | 990.219 ± 0.13 | 1432.6 ± 1.3
m1 = 1.189 | 1004.06 ± 0.13 | 1446.1 ± 1.3
m1 = 1.327 | 1013.96 ± 0.13 | 1455.4 ± 1.3

CC(=O)N(C)C [N,N-dimethylethanamide]
[1], 323.15 K
Settings | mass density [kg/m3] | speed of sound [m/s]
– | 913.129 ± 0.18 | 1357.8 ± 1.3

Reference: the NIST ThermoML archive (doi:10.1016/j.jct.2007.04.006)
